Key:
[1] = target: T1, hDAT (Homo sapiens, UniProt Q01959); experiment: Transporter binding assay, [3H]WIN35,428 displacement in HEK293 membranes; design: expressed in transfected cells; settings: for hDAT/hSERT Affinity Ratio: ratio of binding affinities at hDAT and hSERT
Method: (§1) To prepare membranes, HEK293 cells expressing monoamine transporters were harvested from 80–90% confluent dishes. In short, cells were washed with ice-cold phosphate buffered saline (PBS) twice. An extra 5 mL of PBS was added, and cells were mechanically detached using a plastic scraper and subsequently pelleted by centrifugation (400× g for 10 min at 4 °C). The resulting pellet was resuspended in hypotonic HME buffer (20 mM HEPES NaOH, 1 mM EDTA, 2 mM MgCl2; pH 7.4) and then subjected to two freeze-thaw cycles in liquid nitrogen and homogenization through sonication at 4 °C. Membranes were collected by centrifugation (40,000× g for 30 min at 4 °C) and resuspended in an appropriate volume of HME buffer. Protein concentration was determined using the Bio-Rad Protein Reagent (Bio Rad Laboratories, Hercules, CA, USA). Membrane preparations were kept at −80 °C.
(hSERT assay, final concentration 3 nM)) diluted in the corresponding reaction buffer, 15 µg of membranes in 100 µL of reaction buffer, and 125 µL of the tested drug dilution. […] This non-specific binding also allows subtracting the binding to other components such as the microfiber filters or membrane lipids from the total binding values. Incubation was performed for 1 h at 22 °C. […] The filters were then placed into vials and scintillation cocktail was added. The trapped radioactivity was quantified by liquid scintillation counting. Specific binding of each drug to the transporter was defined as the difference between total binding (binding buffer in absence of drug) and non-specific binding.
Data were expressed as mean ± SEM.

[2] = system: Swiss CD-1 mice; experiment: Conditioned place preference (CPP); assay type: in vivo; settings: for CPP rewarding effects vs saline: highest dose 25 mg kg−1 i.p.
Method: (§2) Male Swiss CD-1 mice (Janvier, Le Genest, France) weighing 30–35 g (6–8 weeks old) were randomly assigned to an experimental group. The animals were housed (seven per cage) in polycarbonate cages with wood-derived bedding, in temperature-controlled conditions (22 ± 1 °C) under a 12 h light/dark cycle and had ad libitum access to food (standard laboratory diet, Panlab SL, Barcelona, Spain) and drinking water. All animal care and experimental protocols in this study were approved by the Animal Ethics Committee of the University of Barcelona under the supervision of the Autonomous Government of Catalonia and are in accordance with the guidelines of the European Community Council (2010/63/EU), as amended by Regulation (EU) 2019/1010. Efforts were made to minimize animal use and suffering. All studies involving animals comply with the ARRIVE guidelines. The animals were supervised before and throughout the study, immediately after injection, and during the behavioral experiment as well as 24 h after injection, and different parameters were visually evaluated for humane endpoints, such as abnormal posture, greater loss than 20%, self-mutilations, and strange vocalizations.
A place conditioning paradigm was used to determine the potential of the seven α-PVP derivatives to induce rewarding effects. The apparatus that is used for this test consists of two compartments, with differences in tactile and visual cues, communicated by a central corridor. Conditioned place preference (CPP) was performed as described by. Briefly, CPP was performed in three phases: preconditioning test and conditioning and post-conditioning test. During the preconditioning phase, mice had free access to both compartments during 15 min, and the time spent in each compartment was recorded and monitored (Smart 3.0 Panlab, Barcelona, Spain). During the conditioning phase (8 sessions), access to the corridor was closed, and mice received an i.p. injection of the corresponding α-PVP derivative and were immediately placed into one of the compartments for 20 min. The doses tested are in accordance with the ones used in the HLA experiment. On the alternative session, mice were placed for 20 min in the other compartment after receiving a saline i.p. injection. Mice in the control group received a saline injection in every session. The compartment and session in which mice received the drug was randomized. On the test day (post-conditioning phase), the same conditions as in the pre-conditioning phase applied. A preference score, expressed in seconds, was calculated as the difference between the time spent in the drug-paired compartment in the post-conditioning test minus the time spent in the preconditioning phase.
(§3) Data were expressed as mean ± SEM. […] High ratios indicate greater selectivity for DAT.

[3] = target: T2, hSERT (Homo sapiens, UniProt P31645); experiment: Uptake inhibition assay, [3H]5-HT uptake in transfected HEK293 cells
[4] = system: Swiss CD-1 mice; experiment: Open field test: center vs. periphery (anxiety-like behavior); assay type: in vivo; settings: for acute anxiogenic effect (time in center of open field): 2.5, 10 and 25 mg kg−1 i.p., acute administration
Method: as §2
Open-field experiments are straight-forward tests that evaluate the animals’ activity in response to novelty (or anxiogenic environment) and pharmacological treatments. Each animal was placed into the center of an open field arena, with sufficient height to prevent the animals from escaping (25 cm length × 25 cm width × 40 cm height), and the time spent (in seconds) in the center (8 × 8 cm) or the periphery of the arena was monitored for 60 min (Smart 3.0 Panlab, Barcelona, Spain).
as §3

[5] = system: Swiss CD-1 mice; experiment: Horizontal locomotor activity (HLA); assay type: in vivo; settings: for duration of the increase in locomotor activity: medium dose 10 mg kg−1 i.p., time course; for HLA vs saline group: 2.5 mg kg−1 i.p., distance travelled in 60 min
Method: as §2
A habituation phase was performed to reduce the novelty and stress associated with handling and injection. In this habituation phase, all mice received, for two consecutive days, an intraperitoneal (i.p.) saline injection and were then placed into a black Plexiglass open field arena (25 × 25 × 40 cm) under low-light conditions and white noise for 30 min. On the test day, the horizontal locomotor activity (HLA) produced by the tested cathinones was measured as described by, with minor modifications. Briefly, the animals received the corresponding i.p. injection (saline 5 mL kg^−1, 3-F-α-PVP, 4-F-α-PVP, 3-Cl-α-PVP, 4-Cl-α-PVP, 3,4-Cl2-α-PVP, 3-Br-α-PVP or 4-Br-α-PVP 2.5, 10 or 25 mg kg^−1 and were immediately placed in the open field arena with the same conditions of light and noise. HLA was video-monitored for 1 h, and their total travelled distance (in cm) was measured using a specific tracking software (Smart 3.0 Panlab, Barcelona, Spain).
as §3

[6] = target: T2, hSERT; experiment: Transporter binding assay, [3H]imipramine displacement in HEK293 membranes; design: expressed in transfected cells
Method: as §1
This non-specific binding also allows subtracting the binding to other components such as the microfiber filters or membrane lipids from the total binding values. Incubation was performed for 1 h at 22 °C. […] The filters were then placed into vials and scintillation cocktail was added. The trapped radioactivity was quantified by liquid scintillation counting. Specific binding of each drug to the transporter was defined as the difference between total binding (binding buffer in absence of drug) and non-specific binding.
as §3

[7] = target: T1, hDAT; experiment: Uptake inhibition assay, [3H]MPP+ uptake in transfected HEK293 cells; settings: for potency at inhibiting DAT relative to cocaine: [3H]MPP+ uptake at hDAT, vs cocaine

T1 sequence (Q01959 whole entry): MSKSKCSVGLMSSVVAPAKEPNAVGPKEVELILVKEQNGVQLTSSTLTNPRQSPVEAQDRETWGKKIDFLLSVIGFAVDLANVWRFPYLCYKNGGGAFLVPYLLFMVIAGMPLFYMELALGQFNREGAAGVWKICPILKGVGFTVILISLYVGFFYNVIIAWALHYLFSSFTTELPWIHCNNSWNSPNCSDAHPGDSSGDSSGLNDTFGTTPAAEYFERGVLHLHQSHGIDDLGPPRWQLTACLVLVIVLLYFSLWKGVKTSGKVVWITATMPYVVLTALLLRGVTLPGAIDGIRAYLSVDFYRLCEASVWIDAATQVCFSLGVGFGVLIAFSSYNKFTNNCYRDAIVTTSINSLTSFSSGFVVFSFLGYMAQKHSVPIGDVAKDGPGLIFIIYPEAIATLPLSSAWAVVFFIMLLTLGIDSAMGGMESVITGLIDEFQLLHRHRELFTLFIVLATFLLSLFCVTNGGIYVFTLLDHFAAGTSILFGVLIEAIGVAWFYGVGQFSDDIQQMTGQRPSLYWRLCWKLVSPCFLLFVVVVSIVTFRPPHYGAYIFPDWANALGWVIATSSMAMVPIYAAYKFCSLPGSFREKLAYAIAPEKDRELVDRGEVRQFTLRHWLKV
T2 sequence (P31645 whole entry): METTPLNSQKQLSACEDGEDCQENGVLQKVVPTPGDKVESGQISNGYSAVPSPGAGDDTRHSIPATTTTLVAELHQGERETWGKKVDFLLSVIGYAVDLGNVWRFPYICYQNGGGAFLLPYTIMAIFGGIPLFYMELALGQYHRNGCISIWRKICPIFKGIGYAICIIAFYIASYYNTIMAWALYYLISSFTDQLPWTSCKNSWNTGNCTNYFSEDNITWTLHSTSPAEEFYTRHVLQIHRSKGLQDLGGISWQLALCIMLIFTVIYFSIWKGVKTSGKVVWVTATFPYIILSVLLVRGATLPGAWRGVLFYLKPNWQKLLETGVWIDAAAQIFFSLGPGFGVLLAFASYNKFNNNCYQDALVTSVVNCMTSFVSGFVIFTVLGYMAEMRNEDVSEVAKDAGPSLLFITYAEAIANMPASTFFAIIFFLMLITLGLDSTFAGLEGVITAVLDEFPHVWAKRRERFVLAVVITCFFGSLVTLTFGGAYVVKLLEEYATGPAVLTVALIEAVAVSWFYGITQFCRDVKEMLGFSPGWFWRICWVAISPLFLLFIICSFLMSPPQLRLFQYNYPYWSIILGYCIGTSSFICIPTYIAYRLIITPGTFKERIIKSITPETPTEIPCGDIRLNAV

SMILES | Ki [1] [nM] | hDAT/hSERT Affinity Ratio [1] | CPP rewarding effects vs saline [2] | IC50 [3] [nM] | acute anxiogenic effect (time in center of open field) [4] | duration of the increase in locomotor activity [5] [min] | Ki [6] [nM] | IC50 [7] [nM] | potency at inhibiting DAT relative to cocaine [7] [fold] | hDAT/hSERT Inhibition Ratio [7] | HLA vs saline group [5] | time in center of open field at the lowest dose ([4]; 2.5 mg kg−1 i.p.) | HLA dose-response at the highest dose ([5]; 25 mg kg−1 i.p.) | CPP rewarding properties vs saline ([2]; lowest dose 2.5 mg kg−1 i.p.) | time in center of open field at the highest dose ([4]; 25 mg kg−1 i.p., effect only at this dose)
CCCC(C(=O)c1ccc(Br)cc1)N1CCCC1 (stereo not drawn) [4-Br-α-PVP, 4-Bromo-α-Pyrrolidinopentiophenone] | 24 | 52 | significant increase of the rewarding effects | 23100 | did not cause acute anxiogenic effects | < 60 | 1250 | 156 | 2 | 148 |  |  |  |  | 
CCCC(C(=O)c1cccc(F)c1)N1CCCC1 (stereo not drawn) [3-F-α-PVP, 3-Fluoro-α-Pyrrolidinopentiophenone] | 14 | 4540 |  | > 100000 | anxiogenic effect |  | 63500 | 132 | 2 | 1819 | significant effect |  |  |  | 
CCCC(C(=O)c1cccc(Cl)c1)N1CCCC1 (stereo not drawn) [3-Cl-α-PVP, 3-Chloro-α-Pyrrolidinopentiophenone] | 13 | 1234 | did not induce significant rewarding effects | 33300 | anxiogenic effect |  | 16400 | 349 |  | 95 | significant effect | anxiogenic effects | ceiling effect |  | 
CCCC(C(=O)c1cccc(Br)c1)N1CCCC1 (stereo not drawn) [3-Br-α-PVP, 3-Bromo-α-Pyrrolidinopentiophenone] | 12 | 470 | significant increase of the rewarding effects | 40000 | anxiogenic effect |  | 5600 | 117 | 2 | 341 |  |  |  | did not show rewarding properties | 
CCCC(C(=O)c1ccc(Cl)c(Cl)c1)N1CCCC1 (stereo not drawn) [3,4-Cl-α-PVP, 3,4-Dichloro-α-Pyrrolidinopentiophenone] | 11 | 462 | significant increase of the rewarding effects | 12700 | anxiogenic effect |  | 4990 | 266 |  | 47 |  |  |  |  | 
CCCC(C(=O)c1ccc(Cl)cc1)N1CCCC1 (stereo not drawn) [4-Cl-α-PVP, 4-Chloro-α-Pyrrolidinopentiophenone] | 16 | 478 | did not induce significant rewarding effects | 15200 | anxiogenic effect | < 60 | 7900 | 391 |  | 38 |  |  |  |  | 
CCCC(C(=O)c1ccccc1)N1CCCC1 (stereo not drawn) [α-PVP, α-Pyrrolidinopentiophenone] | 17 | 8514 |  | > 100000 |  |  | > 100000 | 129 |  | 3418 |  |  |  |  | 
CCCC(C(=O)c1ccc(F)cc1)N1CCCC1 (stereo not drawn) [4-F-α-PVP, 4-Fluoro-α-Pyrrolidinopentiophenone] | 49 | 1173 | significant increase of the rewarding effects | > 100000 | anxiogenic effect |  | 57900 | 154 | 2 | 1366 |  |  |  |  | decrease in the time spent in the center
